Assay results reported in patent US6787567B2, “Fungicidal active ingredients combinations” (Bayer Aktiengesellschaft, priority 2000, dated 2004).

Test system: Plasmopara viticola
Assay: Plasmopara test (grapevine)/protective
Type: in vivo, Plasmopara viticola on grapevine
Settings: protective, evaluation 6 days after inoculation
Protocol: Plasmopara Test (Grapevine)/Protective
Solvent: 49 parts by weight of acetone
Emulsifier: 1 part by weight of alkyl-aryl polyglycol ether
To produce a suitable preparation of active compound, 1 part by weight of active compound or active compound combination is mixed with the stated amounts of solvent and emulsifier, and the concentrate is diluted with water to the desired concentration, or a commercially available formulation of active compound or active compound combination is diluted with water to the desired concentration.
To test for protective activity, young plants are sprayed with the preparation of active compound at the stated application rate. After the spray coating has dried on, the plants are inoculated with an aqueous spore suspension of Plasmopara viticola and then remain in an incubation cabin at approximately 20° C. and 100% relative atmospheric humidity for 1 day. The plants are then placed in a greenhouse at approximately 21° C. and approximately 90% atmospheric humidity for 4 days. The plants are then moistened and then placed in an incubation cabin for 1 day.
Evaluation is carried out 6 days after the inoculation. 0% means an efficacy which corresponds to that of the control, whereas an efficacy of 100% means that no infection is observed.

SMILES	% efficacy (application rate 100 g/ha) [%]	% efficacy (application rate 10 g/ha) [%]
[Cl-].[Cu+2].[Cu+2].[OH-].[OH-].[OH-] [Copper oxychloride (XXXXVIa), copper oxychloride]	26	–
CON=C(C(=O)NCCc1ccc(OC)c(OC)c1)c1ccc2c(c1)CCCC2 [Ib]	–	66
